Where a name gives a salt, the structure may show the parent alone.
Assays:
[1] = Delivery from nail-only and nail and skin applicators, nail on agarose model; assay type: in vitro ADME; settings: for nail loading range: Coulombic dose range 2-60 mA*min
From the text: In the nail and skin applicator, the drug was delivered to both the nail and the skin (not shown). In the nail and skin applicator, the polyurethane foam and the active electrode (Ag-C) extended past the toe nail and onto agarose to mimic skin delivery. The agarose was covered with fluorinated ethylene propylene (FEP) membrane with uniform 0.5 mm holes distributed 5 mm apart to mimic the semi-restrictive property of the skin. […] The applicator extensions were adhered down to the base of the glass plate where the agarose was placed. The saline presoaked (1 hr) toe nail was placed on the curved agarose gel (1% w/v) with a counter electrode on the bottom of the agarose (standard EKG AgCl electrode with hydrogel, […]). […] Passive delivery was also run for 1 hr without current. […] The amount of drug permeated through the nail and into the agarose was determined by extracting terbinafine using 0.1M HCl and analyzing the samples by HPLC. Additional terbinafine HCl delivery testing using both types of applicators at different Coulombic doses were performed on the nail on agarose model. […] These additional doses, along with the higher 60 mA*min dose, were plotted as terbinafine loading (mg/g) with respect to Coulombic dose (FIG. 9F).

T. rubrum [2] = assay: Antifungal activity of terbinafine loaded nails, agar diffusion assay; assay type: cell-based
Description: The nail plates loaded with the formulation containing 4% terbinafine HCl, 21% ethanol (95%), 5% Tween-80, 40% glycerin, 0.3% HEC, 0.2% benzoic acid, 0.01% BHT, and 0.01% disodium EDTA (Formulation TPI-DF-507), by passive diffusion (15 or 60 min) or iontophoresis (Coulombic doses of 0.75, 3, 6, and 12 mA min corresponding to 0.25 mA/cm^2 for 15 min, 0.25 mA/cm^2 for 60 min, 0.5 mA/cm^2 for 60 min, and 1 mA/cm^2 for 60 min, respectively), were tested for antifungal activity. The inoculum, T. rubrum, (ATCC10218) was prepared in sterile saline from 7-10 days old cultures on PDA slants at 30° C. Terbinafine HCl loaded nail pieces (2˜3 mm squares) were placed on the Sabouraud Dextrose Agar plates (Oxoid, Napean, Ontario, Canada) inoculated with T. rubrum. The diameter (mm) of the zones of inhibition were measured using a dial caliper after 4 days of incubation at 30° C. and were compared with the standards. The zone of inhibition for the standards (known drug concentrations: 0.1, 0.2, 0.4, 0.5, 0.6, 0.8, 1.0. 2.0 and 3.0 μg of terbinafine HCl) were determined similarly by loading the drug on 6 mm paper blank disks (Becton Dickinson, Sparks, Md.). Subsequently, the terbinafine HCl standard curve generated was used to calculate the drug dosage out of the nail. […] Based on the passaging study, duration of release of active terbinafine HCl was determined.

T. rubrum [3] = settings: quoted in the T. rubrum agar study, organism not given; cited from earlier work
[4] = assay type: in vitro ADME; settings: 4 %, pH 3
Description: Nails soaked in normal saline for one hour were mounted on a nail adapter and sandwiched between the two chambers of the FDC. […] Anodal iontophoresis was carried out at 0.5 mA/cm^2 for 1 hr using a custom made constant DC power supply. For comparison, passive delivery of the same formulation was performed for 1 hr. For drug release studies, nails loaded with drug were washed to remove the surface drug and were mounted on FDCs. The receiver compartment was filled with pH 3 water. The donor chamber was empty but was covered with parafilm. The receiver compartment medium was sampled daily and the amount of drug released from the drug loaded nails was measured until the cumulative release attained a plateau. Drug delivered into the nail via iontophoresis released terbinafine HCl in a sustained release fashion over approximately 3 weeks at levels far greater than passively loaded nails which reached a plateau only after a few days (FIG. 11). The amount of drug released from iontophoretically loaded nails represented approximately 47% of the initial drug loaded. Undelivered drug was confined to the upper layers of the nail and was hypothesized to be either entrapped or keratin bound. […] Actual release may be slower in vivo since the nail is not in contact with a fluid reservoir with enhanced drug solubility and infinite sink conditions.

[5] = Approximate visual solubility in receiver fluids; assay type: physicochemical; settings: aqueous with cosolvent or surfactant or cyclodextrin, Approximate visual solubility
Description: The visual solubility of each receiver fluid shown in Table 3 below was initially tested for ketoconazole (BUFA B.V.) and ciclopirox (PCAS Finland Oy). Additional solubility testing was then conducted for terbinafine hydrochloride (QueMaCo Ltd.), amorolfine hydrochloride (Inter-Chemical Ltd.) and itraconazole EP (Shamrock, UK) and the results are shown in Table 3.
The solubility of terbinafine hydrochloride, fluconazole, itraconazole and amorolfine hydrochloride was determined in PBS and 5% Tween 80 and the results are summarized in Table 4.

[6] = Permeation through hoof membrane in Franz diffusion cell, passive versus iontophoretic; assay type: in vitro ADME, bovine
Description: The permeation experiments were conducted to optimize the parameters for iontophoretically-assisted terbinafine HCl into the hoof membrane. In these experiments bovine hoof membranes (˜0.250 mm thickness) were used as a model for human nail plates. The prehydrated (in water for 60 min) hoof membrane was sandwiched between the donor and receptor compartments of Franz diffusion cell (FDC). The receptor compartment was filled with receiver fluid (5 ml of PBS-5% Tween 80 (T80), water or water-T80 as indicated) and the set up was visually examined for any leaks by inverting the FDC. Two ml of drug solutions (5-10 mg/ml) or suspensions (5-10 mg/ml) were placed in the donor compartment of the Franz diffusion cell. […] Aliquots (50 μl) of the receptor phase were taken every 15 minutes for the first two hours and every hour subsequently for 8 h. A last aliquot was taken at 24 h. Some experiments were conducted for longer in which case aliquots were taken daily. […] Control passive experiments were conducted in the same way except for the application of electric current. Data were expressed as means ±standard deviations. All experiments were performed in triplicate. Drug permeation was measured as described above for up to 24 hours (n=3). For iontophoretic permeation, current density of 1 mA cm^2 was applied for 1 hr using carbon electrodes. […]

CN(C/C=C/C#CC(C)(C)C)Cc1cccc2ccccc12 [terbinafine HCl, (E)-N-(6,6-dimethyl-2-hepten-4-ynyl)-N-methyl-1-naphthylmethamine hydrochloride]
share of the permeated drug that passed through the nail ([1]; 1 h, 4 %): 8% | share of the total permeated drug which passed through areas surrounding the nail ([1]; 1 h, 4 %): Approximately 92% | nail loading range ([1]; nail and skin applicator): 20 to 90 µg/g | nail loading range ([1]; nail only applicator): 124 to 588 µg/g | zones of inhibition, iontophoresis loaded nails versus passive delivery controls (T. rubrum [2]; Formulation TPI-DF-507, 4 days at 30° C.): Significantly larger zones of inhibition | Duration of terbinafine HCl release from nail samples (T. rubrum [2]; serial passaging to freshly inoculated plates, 0.5 mA/cm^2 for 60 min): at least 36 days | MIC (T. rubrum [3]): 4 ng/mL | amount of drug released as share of the initial drug loaded [4]: approximately 47% | duration of sustained release from iontophoretically loaded nails [4]: approximately 3 weeks | solubility [5]: > 5000 µg/mL | time at which iontophoretic drug permeation leveled off ([6]; bovine, 10 mg/ml): about 8 hrs | drug concentration in the receptor phase ([6]; passive delivery, at 24 h, water-T80 and 10 mg/ml drug solution, average of replicates): 20 ng/mL

Reference: patent US20080261986A1, “PHARMACEUTICAL FORMULATIONS FOR IONTOPHORETIC DELIVERY OF AN ANTI-FUNGAL DRUG” (priority 2007, published 2008)
